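Where inhibition never reached the appropriate level, the endpoint shown equals the highest concentration tested. Otherwise, values were interpolated linearly from a five-concentration, 48-hour dose response in 96-well plates. GI50 is the concentration that inhibits growth by half.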 Calls of active or inactive are those of the source. Cut-off read from the data, not from the text of the source: active = GI50 up to about 1.1 µM and inactive = higher.
Columns and labels:
Assay in all cases: NCI-60 cell line screen, 48 h
[1] = system: 786-0
[2] = system: A549
[3] = system: EKVX
[4] = system: HCC 2998
[5] = system: HL-60
[6] = system: IGROV-1
[7] = system: KM12
[8] = system: MCF7
[9] = system: MDA-MB-435
[10] = system: NCI-H226
[11] = system: NCI/ADR-RES
[12] = system: SF-295
[13] = system: SK-MEL-28
[14] = system: SNB-19
[15] = system: U-251
[16] = system: CCRF-CEM

Structure (SMILES)	GI50 [1]	GI50 [2]	GI50 [3]	GI50 [4]	GI50 [5]	GI50 [6]	GI50 [7]	GI50 [8]	GI50 [9]	GI50 [10]	GI50 [11]	GI50 [12]	GI50 [13]	GI50 [14]	GI50 [15]	GI50 [16]
OCC1CCCC(n2cnc3c(S)ncnc32)O1 (stereo not given)	> 100 µM (inactive)	> 100 µM (inactive)	> 100 µM (inactive)	> 100 µM (inactive)	0.0252 µM (active)	> 100 µM (inactive)	> 100 µM (inactive)	> 100 µM (inactive)	> 100 µM (inactive)	> 100 µM (inactive)	> 100 µM (inactive)	> 100 µM (inactive)	> 100 µM (inactive)	> 100 µM (inactive)	> 100 µM (inactive)	–
Cc1ccc(NC(=O)c2ccc(OP(=O)(O)Nc3ccc(C)cc3)cc2)cc1	> 100 µM (inactive)	> 100 µM (inactive)	> 100 µM (inactive)	> 100 µM (inactive)	> 100 µM (inactive)	> 100 µM (inactive)	> 100 µM (inactive)	> 100 µM (inactive)	> 100 µM (inactive)	> 100 µM (inactive)	> 100 µM (inactive)	> 100 µM (inactive)	> 100 µM (inactive)	> 100 µM (inactive)	> 100 µM (inactive)	> 100 µM (inactive)
Cc1ccnc2nc(-c3cccc(Cl)c3)cc(O)c12	0.08 µM (active)	0.0748 µM (active)	> 100 µM (inactive)	0.224 µM (active)	0.0115 µM (active)	0.185 µM (active)	0.0682 µM (active)	0.36 µM (active)	< 0.01 µM (active)	3.4 µM (inactive)	0.1 µM (active)	0.0426 µM (active)	1.9 µM (inactive)	0.132 µM (active)	0.0596 µM (active)	0.0553 µM (active)
CC(C)(C)OC(=O)NCC(=O)NC1c2ccsc2/C(=N/O)[C@H]1O (stereo not given in full)	–	> 100 µM (inactive)	> 100 µM (inactive)	93.3 µM (inactive)	> 100 µM (inactive)	> 100 µM (inactive)	–	> 100 µM (inactive)	> 100 µM (inactive)	> 100 µM (inactive)	> 100 µM (inactive)	> 100 µM (inactive)	> 100 µM (inactive)	> 100 µM (inactive)	> 100 µM (inactive)	> 100 µM (inactive)
O=C(CSCC(=O)N/N=C/c1cccc(OCc2ccccc2)c1)N/N=C/c1cccc(OCc2ccccc2)c1	54.2 µM (inactive)	27.9 µM (inactive)	69.3 µM (inactive)	30.6 µM (inactive)	21.5 µM (inactive)	> 70.8 µM (inactive)	33.3 µM (inactive)	33.7 µM (inactive)	37.5 µM (inactive)	> 74.5 µM (inactive)	44.6 µM (inactive)	34.2 µM (inactive)	> 100 µM (inactive)	57.5 µM (inactive)	39.2 µM (inactive)	24.4 µM (inactive)
Cc1cc(C)c2c(O)cc(-c3ccc4ccccc4c3)nc2n1	39.8 µM (inactive)	12.5 µM (inactive)	29.5 µM (inactive)	16.3 µM (inactive)	3.04 µM (inactive)	12.6 µM (inactive)	6.04 µM (inactive)	15.5 µM (inactive)	2.92 µM (inactive)	19.5 µM (inactive)	17.1 µM (inactive)	16.2 µM (inactive)	> 47.4 µM (inactive)	30.9 µM (inactive)	16.7 µM (inactive)	11.6 µM (inactive)
OC(CCN1CCN(CCOC(c2ccc(F)cc2)c2ccc(F)cc2)CC1)c1ccccc1 (stereo not given)	12.9 µM (inactive)	16.4 µM (inactive)	12.9 µM (inactive)	3.52 µM (inactive)	15.9 µM (inactive)	13.6 µM (inactive)	18.5 µM (inactive)	16.6 µM (inactive)	17.8 µM (inactive)	15 µM (inactive)	13.3 µM (inactive)	18.3 µM (inactive)	17.5 µM (inactive)	16.9 µM (inactive)	14.6 µM (inactive)	19 µM (inactive)
CCOC(=O)C1CCC(=O)N1C(=O)c1ccc(Cl)cc1 (stereo not given)	> 100 µM (inactive)	> 100 µM (inactive)	> 100 µM (inactive)	> 100 µM (inactive)	> 100 µM (inactive)	> 100 µM (inactive)	> 100 µM (inactive)	> 100 µM (inactive)	> 100 µM (inactive)	> 100 µM (inactive)	> 100 µM (inactive)	> 100 µM (inactive)	> 100 µM (inactive)	> 100 µM (inactive)	> 100 µM (inactive)	> 100 µM (inactive)
Cc1ccc(S(=O)(=O)NC(=O)C2=C3SCCN3C(=O)N(S(=O)(=O)c3ccc(C)cc3)C2c2ccccc2)cc1 (stereo not given)	51.9 µM (inactive)	> 100 µM (inactive)	> 100 µM (inactive)	12.2 µM (inactive)	43.2 µM (inactive)	46.9 µM (inactive)	28.2 µM (inactive)	29.9 µM (inactive)	22.9 µM (inactive)	> 100 µM (inactive)	> 100 µM (inactive)	31.5 µM (inactive)	50.2 µM (inactive)	34.8 µM (inactive)	39.3 µM (inactive)	19.4 µM (inactive)
NC(=O)CC[C@H]1C(=O)N=C(N)N1C(=O)OCc1ccccc1	> 100 µM (inactive)	–	> 100 µM (inactive)	> 100 µM (inactive)	> 100 µM (inactive)	> 100 µM (inactive)	> 100 µM (inactive)	> 100 µM (inactive)	> 100 µM (inactive)	> 100 µM (inactive)	> 100 µM (inactive)	> 100 µM (inactive)	> 100 µM (inactive)	> 100 µM (inactive)	> 100 µM (inactive)	–
NNc1nnc(CCCCCCCCc2nnc(NN)n2N)n1N	33.1 µM (inactive)	> 100 µM (inactive)	> 100 µM (inactive)	33.3 µM (inactive)	24.4 µM (inactive)	55.3 µM (inactive)	> 100 µM (inactive)	> 100 µM (inactive)	> 100 µM (inactive)	> 100 µM (inactive)	80.4 µM (inactive)	76.9 µM (inactive)	> 100 µM (inactive)	64.3 µM (inactive)	16.9 µM (inactive)	> 100 µM (inactive)
C=C(C)[C@@H](C(=O)OC)N1C(=O)c2ccccc2C1=O	> 100 µM (inactive)	> 100 µM (inactive)	> 100 µM (inactive)	> 100 µM (inactive)	> 100 µM (inactive)	> 100 µM (inactive)	> 100 µM (inactive)	> 100 µM (inactive)	> 100 µM (inactive)	> 100 µM (inactive)	> 100 µM (inactive)	> 100 µM (inactive)	> 100 µM (inactive)	> 100 µM (inactive)	> 100 µM (inactive)	> 100 µM (inactive)
CC(=O)NNC1=NN(C(C)=O)C2(S1)C(=O)Nc1ccccc12 (stereo not given)	> 100 µM (inactive)	–	> 100 µM (inactive)	> 100 µM (inactive)	97.5 µM (inactive)	> 100 µM (inactive)	> 100 µM (inactive)	> 100 µM (inactive)	> 100 µM (inactive)	> 100 µM (inactive)	> 100 µM (inactive)	–	> 100 µM (inactive)	> 100 µM (inactive)	> 100 µM (inactive)	> 100 µM (inactive)
CCCCn1c2c(n(CCCC)c1=S)-c1c(n(CCCC)c(=S)n1CCCC)SSc1c(n(CCCC)c(=S)n1CCCC)-c1c(n(CCCC)c(=S)n1CCCC)SSc1c(n(CCCC)c(=S)n1CCCC)-c1c(n(CCCC)c(=S)n1CCCC)SS2	3.56 µM (inactive)	> 50 µM (inactive)	5.37 µM (inactive)	12.6 µM (inactive)	1.75 µM (inactive)	2.43 µM (inactive)	19.4 µM (inactive)	12.8 µM (inactive)	11.3 µM (inactive)	10 µM (inactive)	> 50 µM (inactive)	10.4 µM (inactive)	13.6 µM (inactive)	11.4 µM (inactive)	2.15 µM (inactive)	1.19 µM (inactive)
O=C1c2ccccc2OCC12OC21C=CC(Cl)=CC1 (stereo not given)	–	18.6 µM (inactive)	18.7 µM (inactive)	19.1 µM (inactive)	15.7 µM (inactive)	42.9 µM (inactive)	17.6 µM (inactive)	33.4 µM (inactive)	20.1 µM (inactive)	30.5 µM (inactive)	22.5 µM (inactive)	–	28.4 µM (inactive)	29.8 µM (inactive)	17.3 µM (inactive)	–
COc1ccc2[nH]c(Cl)c(/C=C3/C(=O)N(c4ccccc4)c4ccccc43)c2c1	6.37 µM (inactive)	5.31 µM (inactive)	7.08 µM (inactive)	4.24 µM (inactive)	2.33 µM (inactive)	4.84 µM (inactive)	3.25 µM (inactive)	0.506 µM (active)	1.46 µM (inactive)	–	2.1 µM (inactive)	2.48 µM (inactive)	8.49 µM (inactive)	9.46 µM (inactive)	3.98 µM (inactive)	2.96 µM (inactive)
COC(=O)C1=CCC[C@H]2[C@@]1(COC(C)=O)CC[C@@H](C)[C@]2(C)CC(=O)c1ccoc1	15.2 µM (inactive)	19 µM (inactive)	24.3 µM (inactive)	12.9 µM (inactive)	10.8 µM (inactive)	15.9 µM (inactive)	14.4 µM (inactive)	16.1 µM (inactive)	16.7 µM (inactive)	15.8 µM (inactive)	14.7 µM (inactive)	19.3 µM (inactive)	–	27.9 µM (inactive)	21.2 µM (inactive)	10.3 µM (inactive)
CC(C)(/N=N/C(C)(C)C(=N)N)C(=N)N	> 100 µM (inactive)	> 100 µM (inactive)	> 100 µM (inactive)	> 100 µM (inactive)	> 100 µM (inactive)	> 100 µM (inactive)	> 100 µM (inactive)	> 100 µM (inactive)	> 100 µM (inactive)	> 100 µM (inactive)	> 100 µM (inactive)	> 100 µM (inactive)	> 100 µM (inactive)	> 100 µM (inactive)	> 100 µM (inactive)	–

Reference: ChEMBL document CHEMBL1201862, “PubChem BioAssay data set” (2004)
